Reference: PMC5011342, “A high throughput drug screening assay to identify compounds that promote oligodendrocyte differentiation using acutely dissociated and purified oligodendrocyte precursor cells” (BMC Research Notes, 2016)
Several values for one entry are separate records, joined by “and”; a condition that tells them apart may be missing. Equal entries are not always repeated. Where two headings read alike, the source gives them in different places.

Columns and labels:
[1] = test system: acutely dissociated and purified rat OPCs; assay: Acute OL differentiation assay (MBP expression/cell, immunofluorescent image quantification); type: cell-based; conditions: for activation at 2 µM / activation at 10 µM / activation at 0.4 µM / activation at 0.08 µM: Rattus norvegicus
How it was run: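 Oligodendrocyte precursor cells were enriched from P6-P7 Sprague–Dawley rat brains by immunopanning (RAN-2 and GalC depletion, O4 selection), plated at 5000 cells/well in serum-free, mitogen-free differentiation media on PDL/laminin 96-well view plates, centrifuged at 200×g, and pre-incubated 1–2 h before test compounds were added in quadruplicate. On DIV4, cells were fixed, stained for MBP and DAPI, imaged automatically, and MBP expression per cell was quantified.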

expanded OPCs = assay: cells; conditions: for viability at 0.1 µM / viability at 1 µM / viability at 10 µM: Rattus norvegicus, 72 h; for viability at 0.1 µM: read-out: 0.1 µM (% DMSO), alamarBlue viability, NCC library compound at 0.1 µM, sheet "All Tox data"
How it was run: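 Expanded OPCs seeded at 10,000 cells/well in differentiation media, then exposed to NCC library compounds at 10, 1 and 0.1 µM (quadruplicate, 0.1% DMSO) for three days. Viability read as alamarBlue fluorescence (560/590 nm) after 4 h at 37 °C; tunicamycin 5 ng/ml served as toxicity control.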

[2] = 2 uM test compound, relative to quetiapine, sheet "All OLga data", read-out: OL differentiation, 2 uM (% Quet)
[3] = 10 uM test compound, relative to quetiapine, sheet "All OLga data", read-out: OL differentiation, 10 uM (% Quet)
[4] = read-out: 1 µM (% DMSO), alamarBlue viability, NCC library compound at 1 µM, sheet "All Tox data"
[5] = read-out: 10 µM (% DMSO), alamarBlue viability, NCC library compound at 10 µM, sheet "All Tox data"
[6] = test compound at 0.4 uM, NCC library screen, sheet "All OLga data", relative to quetiapine, read-out: 0.4 uM (% Quet)
[7] = test compound at 2 uM, NCC library screen, sheet "All OLga data", relative to quetiapine, read-out: 2 uM (% Quet)
[8] = alamarBlue viability of expanded OPCs, compound at 0.1 µM, relative to DMSO control
[9] = alamarBlue viability of expanded OPCs, compound at 1 µM, relative to DMSO control
[10] = alamarBlue viability of expanded OPCs, compound at 10 µM, relative to DMSO control
[11] = test compound at 10 uM, NCC library screen, sheet "All OLga data", relative to quetiapine, read-out: 10 uM (% Quet)
[12] = test compound at 2 uM, MBP expression relative to quetiapine, NCC library screen, sheet "All OLga data", read-out: 2 uM (% Quet)
[13] = test compound at 10 uM, MBP expression relative to quetiapine, NCC library screen, sheet "All OLga data", read-out: 10 uM (% Quet)
[14] = 2 uM test compound, relative to quetiapine, sheet "All OLga data"

CN(C)CCOC(C)(c1ccccc1)c1ccccn1 (stereo not drawn) [Doxylamine]
activation at 2 µM [1, 2]: -9.7%
activation at 10 µM [1, 3]: 0.7%
viability at 0.1 µM (expanded OPCs): 96%
viability at 1 µM (expanded OPCs; [4]): 86.6%
viability at 10 µM (expanded OPCs; [5]): 75%

O=C(CCCN1CC=C(n2c(=O)[nH]c3ccccc32)CC1)c1ccc(F)cc1 [Droperidol]
activation at 2 µM [1, 2]: 7.3%
activation at 10 µM [1, 3]: -13.2%
viability at 0.1 µM (expanded OPCs): 90.8%
viability at 1 µM (expanded OPCs; [4]): 97.2%
viability at 10 µM (expanded OPCs; [5]): 71.6%

CS(=O)(=O)c1ccc(-c2cc(Br)sc2-c2ccc(F)cc2)cc1 [DuP 697]
activation at 0.4 µM [1, 6]: -42.3%
activation at 2 µM [1, 7]: -109%
viability at 0.1 µM (expanded OPCs): 89.6%
viability at 1 µM (expanded OPCs; [4]): 114%
viability at 10 µM (expanded OPCs; [5]): 10.7%

CNCC[C@H](Oc1cccc2ccccc12)c1cccs1 [Duloxetine]
activation at 0.08 µM ([1]; read-out: 0.08 uM (% Quet)): -5.1%
activation at 0.4 µM ([1]; read-out: 0.4 uM (% Quet)): -12.9%
activation at 0.08 µM ([1]; read-out: OL differentiation, 0.08 uM (% Quet)): 18.3%
activation at 0.4 µM ([1]; read-out: OL differentiation, 0.4 uM (% Quet)): -7.6%
0.1 µM (% DMSO) (expanded OPCs): 56.7 % DMSO and 82.6 % DMSO
1 µM (% DMSO) (expanded OPCs): 45.5 % DMSO
10 µM (% DMSO) (expanded OPCs): 12.6 % DMSO
viability at 1 µM (expanded OPCs; read-out: 1 µM (% DMSO)): 30.3%
viability at 10 µM (expanded OPCs; read-out: 10 µM (% DMSO)): 9.7%

O=c1c2ccccc2[se]n1-c1ccccc1 [Ebselen]
activation at 0.08 µM ([1]; test compound at 0.08 uM, NCC library screen, sheet "All OLga data", relative to quetiapine, read-out: 0.08 uM (% Quet)): 131%
activation at 0.4 µM [1, 6]: -95.7%
viability at 0.1 µM (expanded OPCs): 61.7%
viability at 1 µM (expanded OPCs; [4]): 30.7%
viability at 10 µM (expanded OPCs; [5]): 10.1%

Clc1ccc(COC(Cn2ccnc2)c2ccc(Cl)cc2Cl)cc1 (stereo not drawn) [Econazole]
activation at 0.4 µM [1, 6]: 90%
activation at 2 µM [1, 7]: -178%
0.1 µM (% DMSO) (expanded OPCs; [8]): 178.0 % DMSO
1 µM (% DMSO) (expanded OPCs; [9]): 195.6 % DMSO
10 µM (% DMSO) (expanded OPCs; [10]): 29.6 % DMSO

CC[N+](C)(C)c1cccc(O)c1 [Edrophonium]
activation at 2 µM [1, 7]: 10.5%
activation at 10 µM [1, 11]: 10.8%
viability at 0.1 µM (expanded OPCs): 93%
viability at 1 µM (expanded OPCs; [4]): 91%
viability at 10 µM (expanded OPCs; [5]): 100%

O=C1Nc2ccc(Cl)cc2[C@@](C#CC2CC2)(C(F)(F)F)O1 [Efavirenz]
activation at 0.4 µM ([1]; 0.4 uM test compound, relative to quetiapine, sheet "All OLga data", read-out: OL differentiation, 0.4 uM (% Quet)): 3.8%
activation at 2 µM [1, 2]: 40.9%
viability at 0.1 µM (expanded OPCs): 90.4%
viability at 1 µM (expanded OPCs; [4]): 85.6%
viability at 10 µM (expanded OPCs; [5]): 16.8%

CCOC(=O)[C@H](CCc1ccccc1)N[C@@H](C)C(=O)N1CCC[C@H]1C(=O)O [Enalapril]
activation at 2 µM [1, 12]: 8.8%
activation at 10 µM [1, 13]: -8.9%
0.1 µM (% DMSO) (expanded OPCs; [8]): 90.6 % DMSO
1 µM (% DMSO) (expanded OPCs; [9]): 90.6 % DMSO
10 µM (% DMSO) (expanded OPCs; [10]): 87.6 % DMSO

C[C@H](N[C@@H](CCc1ccccc1)C(=O)O)C(=O)N1CCC[C@H]1C(=O)O [Enalaprilat]
OL differentiation, 2 uM (% Quet) [1, 14]: -17.8 % Quet
OL differentiation, 10 uM (% Quet) ([1]; 10 uM test compound, relative to quetiapine, sheet "All OLga data"): -49.3 % Quet
0.1 µM (% DMSO) (expanded OPCs; alamarBlue viability, NCC library compound at 0.1 µM, sheet "All Tox data"): 92.9 % DMSO
1 µM (% DMSO) (expanded OPCs; alamarBlue viability, NCC library compound at 1 µM, sheet "All Tox data"): 91.2 % DMSO
10 µM (% DMSO) (expanded OPCs; alamarBlue viability, NCC library compound at 10 µM, sheet "All Tox data"): 83.0 % DMSO

CCN1CCN(c2cc3c(cc2F)c(=O)c(C(=O)O)cn3C2CC2)CC1 [Enrofloxacin]
activation at 2 µM [1, 7]: -3.6%
activation at 10 µM [1, 11]: 13.5%
viability at 0.1 µM (expanded OPCs): 88.5%
viability at 1 µM (expanded OPCs; [4]): 89%
viability at 10 µM (expanded OPCs; [5]): 79.9%

O=C(O[C@@H]1Cc2c(O)cc(O)cc2O[C@@H]1c1cc(O)c(O)c(O)c1)c1cc(O)c(O)c(O)c1 [Epigallocatechin gallate]
OL differentiation, 0.4 uM (% Quet) ([1]; 0.4 uM test compound, relative to quetiapine, sheet "All OLga data"): -15.9 % Quet
OL differentiation, 2 uM (% Quet) [1, 14]: 21.7 % Quet
0.1 µM (% DMSO) (expanded OPCs; alamarBlue viability of expanded OPCs, compound at 0.1 µM, sheet All Tox data): 81.9 % DMSO
1 µM (% DMSO) (expanded OPCs; alamarBlue viability of expanded OPCs, compound at 1 µM, sheet All Tox data): 78.8 % DMSO
10 µM (% DMSO) (expanded OPCs; alamarBlue viability of expanded OPCs, compound at 10 µM, sheet All Tox data): 48.5 % DMSO

CNC[C@H](O)c1ccc(O)c(O)c1 [Epinephrine]
activation at 2 µM [1, 12]: -7.6%
activation at 10 µM [1, 13]: -15%
0.1 µM (% DMSO) (expanded OPCs; [8]): 101.9 % DMSO
1 µM (% DMSO) (expanded OPCs; [9]): 92.7 % DMSO
10 µM (% DMSO) (expanded OPCs; [10]): 81.7 % DMSO
